Experimental data: patent US20250042848A1, “DEUTERATED FUNCTIONALIZED DERIVATIVES OF alpha-ALANINE, IN [sequence] FOR THE TREATMENT OF NEUROLOGICAL DISEASES” (UNIWERSYTET JAGIELLONSKI, priority 2021, published 2025)

Experiments:
[1] = tested on: human liver microsomes (HLMs); experiment: In vitro metabolic stability, human liver microsomes; format: in vitro ADME; conditions: 120-minute incubation with HLMs
Method: (§1) Metabolic stability assessment was performed using mouse (MLMs) and human (HLMs) liver microsomes purchased from Sigma-Aldrich (St. Louis, MO, USA). The detailed methodology is described in the literature (Kamiński et al. J. Med. Chem. 2015, 58, 5274-5286). The reaction mixture was prepared by mixing […] of the tested compound with mouse or human microsomes (1 mg/mL) in 10 mM TRIS-HCl buffer. The reaction mixture was pre-incubated for 5 min at 37° C. After the initial incubation, 50 μL of the NADPH Regeneration System (Promega, Madison, WI, USA) was added to initiate the reaction. The reaction mixture was then incubated for 120 min at 37° C. 200 μL of cold extra pure methanol was added to complete the reaction. The mixture was then centrifuged at 14,000 g for 15 min and the supernatants were analyzed using a Waters ACQUITY™ TQD LC/MS system with a TQ detector (Waters, Milford, USA). Each experiment was performed in triplicate.

[2] = tested on: formalin-induced pain in mice; experiment: Formalin test (tonic pain); format: in vivo; conditions: for nociceptive response, first phase of the formalin test, % of the baseline (control): phase I (0-5 min); for nociceptive response, second phase of the formalin test, % of baseline (control): phase II (15-30 min); for ED50 (dose reducing the nociceptive response by 50%), formalin test: i.p.
Method: Pain was induced with a chemical agent by intraplantar injection of 2.5% formalin solution in mice in a constant volume of 20 μL. The animals were placed in separate, transparent observation chambers for a period of 30 minutes. The measured value was the total licking and biting time of the formalin-treated paw. The nociceptive response was counted in two time intervals: 0-5 minutes from formalin injection (phase I of the test-acute pain) and 15-30 minutes from its administration (phase II of the test-inflammatory pain). The observed inhibition of the nociceptive response-shortening the time of licking and biting the paw, was interpreted as an analgesic effect of the tested compound.
(§2) All tests/models were performed based on procedures described in the specialist literature: formalin test (Beirith et al. Eur. J. Pharmacol. 1998, 345, 233-245), capsaicin-induced pain model (Mogilski et al. Pharmacol. Biochem. Behav. 2015, 133, 99-110), oxaliplatin-induced neuropathic pain model-von Frey's test (Sałat et al. Pharmacol. Biochem. Behav. 2014, 122, 173-181), streptozotocin-induced diabetic neuropathic pain model-von Frey's test (Sałat et al. Neuropharmacology 2017, 125, 181-188; Tanabe et al. J. Pharmacol. Sci. 2008, 107, 213-220). The test group consisted of 8-10 animals.

[3] = tested on: psychomotor seizures induced by a 32 mA, 6 Hz stimulus in mice; experiment: Psychomotor seizure test 6 Hz (32 mA); format: in vivo
Method: (§3) Initial screening was performed on groups of 4 mice. The mean effective dose (ED50) in a given test and the neurotoxic dose in the rotarod test (TD50) were estimated on the basis of the results obtained on 3-4 groups of animals consisting of 6 animals.
(§4) In the psychomotor seizure test (6 Hz test), seizures were induced by a 32 mA and/or 44 mA electrical stimulus of a frequency of 6 pulses per second. An electrical pulse was generated using an electric shock generator (ECT Unit 57800; Ugo Basile, Gemonio, Italy) and delivered to the animal using corneal electrodes. Before starting the test, the eye surface was gently moistened with a solution of local anesthetic (1% lidocaine solution). The study was conducted 30 minutes/2 hours after intraperitoneal administration of the compounds at various doses. An electrical stimulus was delivered continuously for a period of 3 seconds, followed by observation of the animal for a period of 10 seconds. During the experiment, the number of animals with an episode of psychomotor convulsions was counted: motor inhibition, staggering, maintaining a sitting posture, forelimb clonus, twitching of the vibrissae and Straub-tail were observed (Leclercq, K.; Kaminski, R.M. Epilepsia 2015, 56, 310-318).
(§5) The ED50 (effective dose) and TD50 (toxic dose) values along with the corresponding 95% confidence limits were calculated based on the Litchfield and Wilcoxon method (Litchfield, J.T.; Wilcoxon, F. J. Pharmacol. Exp. Ther. 1949, 96, 99-113). To perform a statistical evaluation of the results in the scPTZ test, one-way ANOVA variance analysis followed by Dunnett's post hoc test were used. The values were considered statistically significant if p<0.05.

[4] = tested on: streptozotocin-induced mechanical allodynia in mice; experiment: Streptozotocin-induced diabetic neuropathic pain model, von Frey test; format: in vivo; conditions: three weeks after STZ
Method: The response was tested 3 weeks after the streptozotocin injection. […] Importantly, d4-(R)-1 completely abolished the symptoms of developing sensory neuropathy at all doses.
as §2

[5] = tested on: oxaliplatin-induced mechanical allodynia in mice; experiment: Oxaliplatin (OXPT)-induced peripheral neuropathy model, von Frey test; format: in vivo
Method: The reaction was observed before administration and 3 hours (early phase) and 7 days (late phase) after administration of OXPT.
as §2

[6] = tested on: motor coordination of mice; experiment: Rotarod test (motor coordination, acute neurotoxicity); format: in vivo; conditions: in mg/kg
Method: as §3
The effect of the tested compounds on motor coordination was assessed in the rotarod test (May Commat, RR 0711 RotaRod, Turkey). The day before the actual experiment, the mice were trained on a rod rotating at 10 revolutions per minute (rpm) for 3 minutes. The experiment was performed 30 minutes and 2 hours after administration of the compounds. The motor coordination of the animals was tested at the speed of the rotating rod: 10 rpm for 60 seconds. The measure of neurotoxicity was the inability to stay on the rod for a given time (Łuszczki, J.J. et al. Eur. Neuropsychopharmacol. 2005, 6, 609-616).
as §5

[7] = tested on: mouse liver microsomes (MLMs); experiment: In vitro metabolic stability, mouse liver microsomes; format: in vitro ADME; conditions: 120-minute incubation with MLMs, NADPH
Method: as §1

[8] = tested on: psychomotor seizures induced by a 44 mA, 6 Hz stimulus in mice; experiment: Psychomotor seizure test 6 Hz (44 mA); format: in vivo; conditions: in mg/kg
Method: as §3, §4, §5

[9] = 0.5 h after i.p. administration
[10] = 2.0 h after i.p. administration
[11] = 30 mg/kg, seven days after OXPT (late phase)
[12] = 30 mg/kg, three hours after OXPT (early phase)
[13] = 60 mg/kg, seven days after OXPT (late phase)
[14] = 60 mg/kg, three hours after OXPT (early phase)
[15] = 90 mg/kg, seven days after OXPT (late phase)
[16] = 90 mg/kg, three hours after OXPT (early phase)

## [2H]C1([2H])C(=O)N([C@H](C)C(=O)NCc2ccccc2)C(=O)C1([2H])[2H] [d4-(R)-1, (R)-N-benzyl-2-(2,5-dioxopyrrolidin-1-yl-3,3,4,4-d4) propanamide]
[1]
  metabolic stability: high metabolic stability
[2]; i.p. 30 mg/kg
  nociceptive response, first phase of the formalin test, % of the baseline (control): 46.80%
  nociceptive response, second phase of the formalin test, % of baseline (control): 46.04%
[2]; i.p. 60 mg/kg
  nociceptive response, first phase of the formalin test, % of the baseline (control): 49.85%
  nociceptive response, second phase of the formalin test, % of baseline (control): 56.06%
[2]; i.p. 90 mg/kg
  nociceptive response, first phase of the formalin test, % of the baseline (control): 64.40%
  nociceptive response, second phase of the formalin test, % of baseline (control): 43.36%
[2]; i.p. 120 mg/kg
  nociceptive response, first phase of the formalin test, % of the baseline (control): 39.68%
  nociceptive response, second phase of the formalin test, % of baseline (control): 30.24%
[2]; phase I
  ED50 (dose reducing the nociceptive response by 50%), formalin test: 97.9 mg/kg
[2]; phase II
  ED50 (dose reducing the nociceptive response by 50%), formalin test: 71.5 mg/kg
[3]; [9]
  ED50 6 Hz (32 mA): 18.6 mg/kg
[3]; [10]
  ED50 6 Hz (32 mA): 46.4 mg/kg
[4]; 30 mg/kg i.p.
  pain threshold (von Frey): 6.80 ± 0.54 g
  pain threshold, % of baseline: 115.4%
[4]; 60 mg/kg i.p.
  pain threshold (von Frey): 8.64 ± 0.72 g
  pain threshold, % of baseline: 146.6%
[4]; 90 mg/kg i.p.
  pain threshold (von Frey): 9.40 ± 0.61 g
  pain threshold, % of baseline: 159.6%
[5]; [11]
  pain threshold (von Frey): 6.38 ± 0.50 g
  pain threshold, % of baseline: 123.9%
[5]; [12]
  pain threshold (von Frey): 5.73 ± 0.40 g
  pain threshold, % of baseline: 111.3%
[5]; [13]
  pain threshold (von Frey): 7.34 ± 0.42 g
  pain threshold, % of baseline: 119.2%
[5]; [14]
  pain threshold (von Frey): 5.33 ± 0.427 g
  pain threshold, % of baseline: 86.5%
[5]; [15]
  pain threshold (von Frey): 7.04 ± 0.31 g
  pain threshold, % of baseline: 110.5%
[5]; [16]
  pain threshold (von Frey): 7.23 ± 0.42 g
  pain threshold, % of baseline: 113.5%
[6]; [9]
  TD50 Rotarod: 176.7
[6]; [10]
  TD50 Rotarod: >300
[7]
  metabolic stability (metabolites in UPLC chromatograms): no metabolites appeared
[8]; [9]
  ED50 6 Hz (44 mA): 79.2
[8]; [10]
  ED50 6 Hz (44 mA): 125.3
